Biological target: T1, wtPTE (Brevundimonas diminuta, UniProt P0A434)
T1 construct: gene opd; synthetic gene in pET-Strep vector, expressed in E. coli BL21 (DE3) with GroEL/ES, ZnCl2 in medium; clarified lysate
Assay: absorbance at […] nm, p-nitrophenolate release, initial rate in clarified lysate
Type: biochemical
Settings: 180 uM substrate; Tris-HCl pH 7.5 lysis buffer, 0.1% Triton X-100; native activity

**Q.** Which “absorbance at 405 nm, p-nitrophenolate release, initial rate in clarified lysate” value does the source give for `CCOP(=O)(OCC)Oc1ccc([N+](=O)[O-])cc1` [paraoxon] here?
**A.** The value was “wtPTE catalyzes the hydrolysis of paraoxon (PTE activity)”.

— paper PMC5065130, “Functional Trade-Offs in Promiscuous Enzymes Cannot Be Explained by Intrinsic Mutational Robustness of the Native Activity” (PLoS Genetics, 2016)
